Assay results taken from US20260250325A1, “Antiviral Polypeptide Membrane Fusion Inhibitor, and Preparation Method and Application Thereof” (priority 2025, published 2026).
Where a SMILES comes first, the peptide text is derived from it. The star is where a group is joined. Succinyl(4-O-cholesteryl) = CC(C)CCC[C@@H](C)[C@H]1CC[C@H]2[C@@H]3CC=C4C[C@@H](OC(=O)CCC(=O)*)CC[C@]4(C)[C@H]3CC[C@]12C

Key:
RSV A long virus strain = format: cell-based; details: RSV A long virus strain, HEp-2 cells, plaque reduction, 1 day; read-out: IC50
Method in brief: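 HEp-2 cells (30000/well) infected with 100 PFU virus premixed 1 h with compound (8 concentrations, duplicate); after 2 h adsorption, cultured 1 day at 37 °C under 0.8% CMC overlay with compound. Plaques immunostained (RSV antibody, TrueBlue) and counted; IC50 and CC50 by non-linear fitting of % inhibition versus virus and cell controls.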

RSV A2 virus strain = assay: Cotton rat RSV A2 challenge protection, lung nucleic acid load by RT-qPCR; format: in vivo; details: cotton rats; for Nucleic acid load RT-qPCR detection results Log10 mean (copy number/gram of lung tissue): tracheal nebulization 1 mg/kg QD for 5 days, lung collected 2 h after final administration on Day 4; for effect on viral titer in lung tissue (in words): tracheal nebulization once daily for 5 days
Source text: Female cotton rats were from Shanghai Yishang Biotechnology Co., Ltd. The RSV A2 virus strain was from the ATCC, with a catalog number VR-1540. RT-qPCR primer+probe primer were supplied by Qingke Biotechnology Co., Ltd, with batch number TSP20241227-025-00187. The RT-qPCR standard was provided by Vazyme, with batch number 20241008.
Female cotton rats (6-8 weeks old) were grouped based on body weight (n=5). All animals were intranasally challenged with RSV on Day 0 at a challenge dosage of […] pfu (50 μL) per animal. Administration began 1 h after Day 0 challenge; the polypeptide sample, positive control, and solvent control were administered via tracheal nebulization once daily for 5 consecutive days. Lung tissue was collected from all animals 2 h after the final administration on Day 4. Left lung tissue (including partial trachea) was rapidly frozen in a virus protection solution with a 10-fold volume and stored below −70° C.; and the viral titer was detected with RT-qPCR.
First, sample homogenization and lung tissue RNA extraction were performed, and the supernatant was taken from the tissue sample that was homogenized using a tissue homogenizer (maintaining a low-temperature environment). The approximately 100 μL of the homogenate supernatant was taken, and total tissue RNA was extracted by using a VeZol reagent-chloroform-water phase-magnetic bead method, and dissolved in RNase-free water. The RT-qPCR reaction system was prepared as follows: a one-step RT-qPCR reaction system was prepared by using an RNA template, a probe, a primer pair, an RT-qPCR buffer, and the RNase-free water; each sample was tested in duplicated wells, with each well containing 20 μL of the one-step RT-qPCR reaction system; a quantitative standard curve well (RSV A2 N gene full-length plasmid), a positive quality control well, and a negative quality control well were arranged at the same time. Then, amplification programs were set according to reverse transcription, pre-denaturation, and cyclic amplification, and amplification data was collected by using a real-time fluorescence quantification PCR instrument, and a mean CT value for duplicated wells was calculated. The CT value from the test results for each sample was substituted into a quantitative standard curve to calculate a copy number. A calculation formula for RSV viral load (copy number/gram of lung tissue) was: sample viral load (copy number/gram of lung tissue)=copy number/relative tissue input (g).
One hour after RSV A2 challenge in cotton rats, compounds 13, 14, 17, 19, 20, 21, 26, 27, 28, and 40 were administered via tracheal nebulization once daily for 5 consecutive days; and 2 h after the final administration, lung tissue was collected from all groups for viral titer detection, and results were shown in Table 4.

SMILES: CC[C@H](C)[C@H](NC(=O)[C@H](CCCCN)NC(=O)[C@H](CCCCN)NC(=O)[C@H](CC(C)C)NC(=O)[C@H](CO)NC(=O)[C@H](CCC(=O)O)NC(=O)[C@H](CCC(=O)O)NC(=O)[C@@H](NC(=O)[C@H](CCCCN)NC(=O)[C@H](CCCCN)NC(=O)[C@H](CC(N)=O)NC(=O)[C@@H](NC(=O)[C@H](CCC(=O)O)NC(=O)[C@H](CCC(=O)O)NC(=O)[C@@H](NC(=O)[C@H](CCCCN)NC(=O)[C@H](CCCCN)NC(=O)[C@H](CC(=O)O)NC(=O)[C@H](Cc1ccccc1)NC(=O)[C@H](CCC(=O)O)NC(=O)[C@H](CC(=O)O)NC(=O)[C@H](CO)NC(C)=O)[C@@H](C)CC)C(C)C)[C@@H](C)CC)C(=O)N[C@@H](CCC(=O)O)C(=O)N[C@@H](CCC(=O)O)C(=O)N[C@@H](CO)C(=O)N[C@@H](CC(=O)O)C(=O)N[C@@H](CCCCN)C(=O)N[C@@H](CCCCN)C(=O)N[C@@H](CC(C)C)C(=O)NCC(=O)N[C@@H](CO)C(=O)NCC(=O)N[C@@H](CO)C(=O)NCC(=O)N[C@@H](CCCCNC(=O)CCC(=O)O[C@H]1CC[C@@]2(C)C(=CC[C@H]3[C@@H]4CC[C@H]([C@H](C)CCCC(C)C)[C@@]4(C)CC[C@@H]32)C1)C(N)=O [Compound 20] (Ac-SDEFDKKIEEVNKKIEESLKKIEESDKKLGSGSGK(Succinyl(4-O-cholesteryl))-NH2)
- IC50 (RSV A long virus strain): 19.8 nM
- Nucleic acid load RT-qPCR detection results Log10 mean (copy number/gram of lung tissue) (RSV A2 virus strain): 8.55 Log10 copy number/gram of lung
- effect on viral titer in lung tissue (in words) (RSV A2 virus strain): significantly reduce the viral titer in lung tissue

SMILES: CC[C@H](C)[C@H](NC(=O)[C@H](CCCCN)NC(=O)[C@H](CCCCN)NC(=O)[C@H](CC(C)C)NC(=O)[C@H](CO)NC(=O)[C@H](CCC(=O)O)NC(=O)[C@H](CCC(=O)O)NC(=O)[C@@H](NC(=O)[C@H](CCCCN)NC(=O)[C@H](CCCCN)NC(=O)[C@H](CC(N)=O)NC(=O)[C@@H](NC(=O)[C@H](CCC(=O)O)NC(=O)[C@H](CCC(=O)O)NC(=O)[C@@H](NC(=O)[C@H](CCCCN)NC(=O)[C@H](CCCCN)NC(=O)[C@H](CC(=O)O)NC(=O)[C@H](Cc1ccccc1)NC(=O)[C@H](CCC(=O)O)NC(=O)[C@H](CC(=O)O)NC(=O)[C@H](Cc1c[nH]c2ccccc12)NC(C)=O)[C@@H](C)CC)C(C)C)[C@@H](C)CC)C(=O)N[C@@H](CCC(=O)O)C(=O)N[C@@H](CCC(=O)O)C(=O)N[C@@H](CO)C(=O)N[C@@H](CC(=O)O)C(=O)N[C@@H](CCCCN)C(=O)N[C@@H](CCCCN)C(=O)N[C@@H](CC(C)C)C(=O)N[C@@H](CCC(=O)O)C(=O)N[C@@H](C)C(=O)N[C@@H](C)C(=O)N[C@@H](C)C(=O)N[C@@H](CCCCN)C(=O)N[C@@H](CCCCNC(=O)CCC(=O)O[C@H]1CC[C@@]2(C)C(=CC[C@H]3[C@@H]4CC[C@H]([C@H](C)CCCC(C)C)[C@@]4(C)CC[C@@H]32)C1)C(N)=O [Compound 13] (Ac-WDEFDKKIEEVNKKIEESLKKIEESDKKLEAAAKK(Succinyl(4-O-cholesteryl))-NH2)
- IC50 (RSV A long virus strain): 13 nM
- Nucleic acid load RT-qPCR detection results Log10 mean (copy number/gram of lung tissue) (RSV A2 virus strain): 7.82 Log10 copy number/gram of lung
- effect on viral titer in lung tissue (in words) (RSV A2 virus strain): significantly reduce the viral titer in lung tissue
